Assay results: the CATMoS acute toxicity set (Mansouri et al. 2021)
Where a SMILES comes first, the peptide text is derived from it.

Assay: GHS categories as the set defines them, by LD50: 1 up to 5, 2 up to 50, 3 up to 300, 4 up to 2000, 5 above 2000 mg/kg
Conditions: rat; in vivo; po

## CCCCCC=CCC=CCC=CCC=CCCCC(=O)OCC
  GHS category: 5

## CCCCCCCCCC=CC=O
  GHS category: 5

## COc1ccccc1N1CCN(/C(N)=N/c2ccc(Cl)c(Cl)c2)CC1
  GHS category: 4

## COC(=O)c1cc(F)ccc1[N+](=O)[O-]
  GHS category: 5

## COC(=O)c1ccc(C(=O)OC)c(N=NC(C(C)=O)C(=O)Nc2ccc(NC(=O)C(N=Nc3cc(C(=O)OC)ccc3C(=O)OC)C(C)=O)cc2)c1 (stereo unspecified)
  GHS category: 5

## CC(C)OC(=O)CCCCCCCCC(=O)OC(C)C
  GHS category: 5

## CSC(=O)c1c(C(F)F)nc(C(F)(F)F)c(C(=O)SC)c1CC(C)C
  GHS category: 5

## CC1CC(OC(=O)COc2ccccc2Cl)CC(C)(C)C1 (stereo unspecified)
  GHS category: 5

## CO[C@@]1(NC(=O)Cc2cccs2)C(=O)N2C(C(=O)O)=C(COC(N)=O)CS[C@@H]21
  GHS category: 5

## CCCCCCCCCCCCCCCCCC(=O)OC(CO)COC(=O)CCCCCCCCCCCCCCC (stereo unspecified)
  GHS category: 5

## CCN(CC)C(=O)CCSCc1nnnn1C
  GHS category: 4

## COc1cc2nc(N3CCC(CN(C)C(=O)c4ccco4)CC3)nc(N)c2cc1OC
  GHS category: 4

## O=C(O)CCCC/C=C(\c1ccccc1)c1cccnc1
  GHS category: 5

## Brc1ccc(N/C(=N/C2CCCCC2)c2ccccc2)cc1
  GHS category: 5

## CCC1(CC)COP(=S)(N(SN(C)C(=O)ON=C(C)SC)C2CCCCC2)OC1
  GHS category: 5

## O=[N+]([O-])c1ccc2c(c1)COP(=S)(N1CCCCC1)O2 (stereo unspecified)
  GHS category: 3

## Cc1cnc(C2=NC(=O)C(C)(C(C)C)N2)c(C(=O)O)c1 (stereo unspecified)
  GHS category: 5

## CN1C(=O)C(C)(C)Oc2cc(C(=O)C=Cc3ccc(O)cc3)ccc21
  GHS category: 5

## CCCCCCC(O)CCCCCCCCCCC(=O)OCC(COC(=O)CCCCCCCCCCC(O)CCCCCC)OC(=O)CCCCCCCCCCC(O)CCCCCC (stereo unspecified)
  GHS category: 5

## CON(C)C(=O)Nc1cc(C(C)(C)C)ns1
  GHS category: 4

## CCCCCCCCCCCCCCOC(=O)CCCCCCCCCCCCC
  GHS category: 5

## CCC1Nc2cc(Cl)c(S(N)(=O)=O)cc2S(=O)(=O)N1 (stereo unspecified)
  GHS category: 5

## CCN(CC)c1nc2ccccn2c(=O)c1C=NN1CCOC1=O
  GHS category: 3

## CCCc1nc2ccnn2c(N2CCOCC2)c1Cc1ccc(-c2ccccc2-c2nn[nH]n2)cc1
  GHS category: 4

## CC1=NN(c2ccccc2)C(=O)C1=CN1CCCCC1
  GHS category: 5

## CCn1nnnc1CSCCC(N)=O
  GHS category: 4

## CCCCOC(=O)C=Cc1ccccc1
  GHS category: 5

## CCOC(=O)c1cc(Br)ccc1OC(N)=O
  GHS category: 5

## CCOC(=O)C(=O)Nc1cc(SC)nc(C)n1
  GHS category: 4

## CCOC(=O)CCNc1ccccn1
  GHS category: 5

## COc1ccc2c(c1)CCN(c1ccccc1)C2c1ccc(OCCN2CCCCC2)cc1 (stereo unspecified)
  GHS category: 4

## CCOC(=O)[C@H](CCc1ccccc1)N[C@H]1CCc2ccccc2N(CC(=O)O)C1=O
  GHS category: 5

## CC(C)c1ccc(C(C)C)cc1
  GHS category: 5

## O=C1c2ccccc2C2=Nc3cccc4cccc(c34)N12
  GHS category: 5

## Cc1nc(N)sc1C(=O)NCc1ccccc1
  GHS category: 4

## CC(C)Cc1ccc(OP(=O)(Oc2ccc(CC(C)C)cc2)Oc2ccc(CC(C)C)cc2)cc1
  GHS category: 5

## CNC(=O)C(=NNc1ccccc1Cl)C(C)=O
  GHS category: 5

## CC12C=CC(=O)C=C1CCC1C2CCC2(C)C(O)CCC12 (stereo unspecified)
  GHS category: 5

## C[C@]12Cc3nonc3C[C@@H]1CC[C@@H]1[C@@H]2CC[C@@]2(C)[C@H]1CC[C@]2(C)O
  GHS category: 5

## CCOC(=O)[C@H](CCc1ccccc1)N[C@H]1CCCN2CCC[C@@H](C(=O)O)N2C1=O
  GHS category: 5

## O=C1C=CC(=O)N1c1ccc(Cc2ccc(N3C(=O)C=CC3=O)cc2)cc1
  GHS category: 5

## CCN(CCCCOC(=O)c1ccc(OC)c(OC)c1)C1CCc2cc(OC)ccc2C1 (stereo unspecified)
  GHS category: 5

## C/C=C/C/C=C\CCCCCCCCOC(C)=O
  GHS category: 4

## CC(=O)n1c(=O)oc2ccc(Cl)cc21
  GHS category: 5

## CCCCCCCCCCCCCCCC(=O)OC[C@@H](O)[C@H]1OC[C@H](O)[C@H]1O
  GHS category: 5

## CNC(=O)Oc1cccc2c1OC(C)(C(C)(C)C)O2 (stereo unspecified)
  GHS category: 4

## Nc1ccc(C(=O)NCCN2CCN(c3ccccn3)CC2)cc1
  GHS category: 5

## O=S(=O)(CCl)c1ccc(Br)cc1
  GHS category: 5

## COC(=O)[C@H](Cc1ccccc1)NC(=O)[C@@H](N)CC(=O)O (H-Asp-Phe-OMe)
  GHS category: 5

## CC1CNCCN1SC=S (stereo unspecified)
  GHS category: 5

## OC[C@H]1O[C@@H](n2cnc3c(NC[C@H](O)COc4cccc5ccccc45)ncnc32)[C@H](O)[C@@H]1O
  GHS category: 4

## O=C1CCCCCCCCCCCCCCO1
  GHS category: 5

## Cc1cc(C(F)(C(F)(F)F)C(F)(F)F)ccc1NC(=O)c1cccc(I)c1C(=O)NC(C)(C)CS(C)(=O)=O
  GHS category: 5

## O=C(O)CCCCCCCC(=O)O
  GHS category: 5

## O=c1[nH]c(=O)[nH]c(=O)[nH]1
  GHS category: 5

## CCCCCCOC(=O)CCCCC(=O)OCCCCCC
  GHS category: 5

## CC(=O)OC(C)c1ccccc1 (racemic)
  GHS category: 5

## CCc1cccc(OP(=O)(Oc2cccc(CC)c2)Oc2cccc(CC)c2)c1
  GHS category: 5

## C=CCCCCCCCCOC(C)=O
  GHS category: 5

## CC(=O)C1(Cl)CC1
  GHS category: 4

## COc1cc([N+](=O)[O-])ccc1N=NC(C(C)=O)C(=O)Nc1ccccc1OC (stereo unspecified)
  GHS category: 5

## CCOC(=O)C1(C)OC(=O)N(c2cc(Cl)cc(Cl)c2)C1=O (stereo unspecified)
  GHS category: 5

## CC(=O)Nc1c(I)c(C(=O)N[C@H]2C(O)O[C@H](CO)[C@@H](O)[C@@H]2O)c(I)c(N(C)C(C)=O)c1I (stereo partly specified)
  GHS category: 5

## O=C(Nc1ccc(Cl)cc1)c1ccccc1
  GHS category: 4

## O=C(O)CCC(=O)OC1N=C(c2ccccc2)c2cc(Cl)ccc2NC1=O (stereo unspecified)
  GHS category: 5

## Brc1cc(Oc2cc(Br)c(Br)c(Br)c2Br)c(Br)c(Br)c1Br
  GHS category: 5

## CCC=CCC=CCC=CCC=CCCCCC(=O)OCC
  GHS category: 5

## C[C@]12CCC(=O)C[C@@H]1CC[C@@H]1[C@@H]2CC[C@@]2(C)[C@H]1CC[C@]2(C)O
  GHS category: 5

## O=c1c2ccccc2[nH]c2cc3c(=O)c4ccccc4[nH]c3cc12
  GHS category: 5

## COc1ccc(-c2ccc(C#N)cc2)cc1
  GHS category: 5

## CCCCCCCC(=O)OOC(C)(C)C
  GHS category: 5

## O=S(=O)(O)c1ccc2c(c1)Nc1cc3nc4ccc(S(=O)(=O)O)cc4nc3cc1N2
  GHS category: 5

## CN1C(C(=O)Nc2ccc(O)cn2)=C(O)c2sccc2S1(=O)=O
  GHS category: 2

## Nc1ccc(C2(c3ccc(N)c(Cl)c3)c3ccccc3-c3ccccc32)cc1Cl
  GHS category: 5

## CN1C(=O)CCc2c(OCC(O)CN3CCC(Cc4ccccc4)CC3)cccc21 (stereo unspecified)
  GHS category: 4

## CC1(C)O[C@@H]2C[C@H]3[C@@H]4CCC5=CC(=O)CC[C@]5(C)[C@@]4(F)[C@@H](O)C[C@]3(C)[C@]2(C(=O)CCl)O1
  GHS category: 5

## COC(Cn1cncn1)(OC)c1cc2ccccc2o1
  GHS category: 4

## C=CCCCCCCCCC(=O)OCC
  GHS category: 5

## O=Cc1c(O)ccc2ccccc12
  GHS category: 5

## COc1cc(OC)c2oc(C3(Cn4cncn4)OCCO3)cc2c1
  GHS category: 4

## Cc1cccc(Nc2cc(Cl)nc(SCC(=O)NCCO)n2)c1C
  GHS category: 5

## CSC(C)=NOC(=O)N(C)SN(C(C)(C)C)P1(=S)OCC(C)(C)CO1
  GHS category: 5

## CC(C)c1cc(C(C)C)c(N)c(C(C)C)c1N
  GHS category: 4

## OCCn1c(C=Cc2nc3ccccc3[nH]2)nc2ccccc21
  GHS category: 5

## CC(O)COC(=O)c1c(Br)c(Br)c(Br)c(Br)c1C(=O)OCCOCCO (stereo unspecified)
  GHS category: 5

## CCCCCCCCCCCCCCCC(=O)OC[C@H](O)[C@H]1OC(=O)C(O)=C1O
  GHS category: 5

## OC1c2ccccc2CCc2ccncc21 (stereo unspecified)
  GHS category: 5

## Nc1c(OCCOC(=O)Oc2ccccc2)cc(O)c2c1C(=O)c1ccccc1C2=O
  GHS category: 5

## CC(C)(O)C(=O)c1ccc(Cc2ccc(C(=O)C(C)(C)O)cc2)cc1
  GHS category: 5

## Cc1ccc2nc(-c3ccc(N)cc3)sc2c1S(=O)(=O)O
  GHS category: 5

## CCCCCCCCC=COCC
  GHS category: 5

## CCO[Si](OCC)(OCC)N(CC)CC
  GHS category: 4

## O=C1CCCCCN1SSN1CCCCCC1=O
  GHS category: 5

## CCCC(CCC)C(=O)Oc1ccccc1OC
  GHS category: 5

## NC(=O)CCNCCO
  GHS category: 5

## CC(C)(C)c1ccc(N(CCN2CCCCC2)c2cccc(Cl)c2)cc1
  GHS category: 5

## CCCC(=O)O[C@H]1[C@H](C)O[C@@H](O[C@H]2[C@H](N(C)C)[C@@H](O)[C@H](O[C@H]3[C@@H](CC=O)C[C@@H](C)[C@@H](O)/C=C/C=C/C[C@@H](C)OC(=O)C[C@@H](O)[C@@H]3OC)O[C@@H]2C)C[C@@]1(C)OC(=O)CC
  GHS category: 5

## Cc1ccc(OC(=O)Cc2ccccc2)cc1
  GHS category: 5

## CC(=O)CC(=O)O[C@H]1C[C@@H](C)CC[C@@H]1C(C)C
  GHS category: 5

## COc1ccc2c(c1)CCN(c1ccccc1)C2c1ccccc1N (stereo unspecified)
  GHS category: 4

## CCCCOC(=O)Nc1nc(N2CC=CCC2)cc2nc(=O)on12
  GHS category: 5

## COc1cc(S(=O)(=O)O)c(C)cc1/N=N/c1c(O)ccc2cc(S(=O)(=O)O)ccc12
  GHS category: 5

## CC(=O)C[N+]1(CC(N)=O)C(=O)Sc2ccc(Cl)cc21 (stereo unspecified)
  GHS category: 5

## N#CNC(=N)NCCCCCCNC(=N)NC#N
  GHS category: 5

## COC(=O)c1cc(F)ccc1N
  GHS category: 5

## Nc1ccc(S(=O)(=O)c2ccc(NCCO)cc2)cc1
  GHS category: 5

## O=C1NC(=O)C(N=NC2C(=O)NC(=O)NC2=O)C(=O)N1
  GHS category: 5

## CCCBr
  GHS category: 5

## N#Cc1c[nH]cc1-c1cccc(Cl)c1Cl
  GHS category: 5

## C=CC(=O)OCC[N+](C)(C)Cc1ccccc1
  GHS category: 5

## CCCC(=O)c1ccc2c(c1)OCC(=O)N2C
  GHS category: 5

## NC(=O)[C@@H]1C[C@]2(NC(=O)NC2=O)c2cc(F)ccc2O1
  GHS category: 5

## CN(C)CCOC(=O)C(c1ccccc1)C1(O)CCCC1 (stereo unspecified)
  GHS category: 5

## Cc1cc2[nH]c(=O)[nH]c2cc1N=NC1C(=O)NC(=O)NC1=O
  GHS category: 5

## CCCCCCCC/C=C\CCCCCCCC(=O)OC[C@@H](OC(=O)CCCCCCC/C=C\CCCCCCCC)[C@H]1OC[C@H](O)[C@H]1O
  GHS category: 5

## CNC(=O)/C(=N/OC)c1ccccc1COc1cc(C)ccc1C
  GHS category: 5
